One experiment concerns the target T1, human OX1 receptor (Homo sapiens, UniProt O43613).
T1 construct: expressed in transfected cells; host or cells: CHO cells
T1 sequence (O43613 1-425): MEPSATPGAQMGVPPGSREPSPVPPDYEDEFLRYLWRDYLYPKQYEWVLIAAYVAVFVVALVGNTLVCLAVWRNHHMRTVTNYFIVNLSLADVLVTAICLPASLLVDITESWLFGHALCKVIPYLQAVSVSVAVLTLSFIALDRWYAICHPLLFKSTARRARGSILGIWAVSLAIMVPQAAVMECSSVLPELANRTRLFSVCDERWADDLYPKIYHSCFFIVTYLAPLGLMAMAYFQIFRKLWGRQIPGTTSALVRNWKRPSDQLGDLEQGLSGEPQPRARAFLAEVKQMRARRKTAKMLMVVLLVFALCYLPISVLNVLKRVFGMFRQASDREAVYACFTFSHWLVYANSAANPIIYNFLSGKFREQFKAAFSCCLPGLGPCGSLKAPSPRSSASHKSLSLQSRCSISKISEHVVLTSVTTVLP
The experiment can be described thus: Measurement of orexin receptor antagonistic activity (calcium fluorescence, FLIPRtetra). The format is cell-based. Particulars: 10 μM test compound, CHO cells expressing human OX1 receptor, OX-A 1 nM; for inhibition at 10 µM: CHO, read-out: Human Orexin1 receptor inhibition (at 10 μM). In outline: (§1)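 Calcium fluorescence measured by FLIPRtetra every second for 2 min after orexin-A challenge, 1 nM final for OX1 and 0.3 nM final for OX2. Receptor-expressing CHO cells received compound in HEPES-buffered HBSS with 0.1% BSA just before agonist.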

The target in another experiment is T2, human OX2 receptor (Homo sapiens, UniProt O43614).
T2 construct: expressed in transfected cells; host or cells: CHO cells
T2 sequence (O43614 1-444): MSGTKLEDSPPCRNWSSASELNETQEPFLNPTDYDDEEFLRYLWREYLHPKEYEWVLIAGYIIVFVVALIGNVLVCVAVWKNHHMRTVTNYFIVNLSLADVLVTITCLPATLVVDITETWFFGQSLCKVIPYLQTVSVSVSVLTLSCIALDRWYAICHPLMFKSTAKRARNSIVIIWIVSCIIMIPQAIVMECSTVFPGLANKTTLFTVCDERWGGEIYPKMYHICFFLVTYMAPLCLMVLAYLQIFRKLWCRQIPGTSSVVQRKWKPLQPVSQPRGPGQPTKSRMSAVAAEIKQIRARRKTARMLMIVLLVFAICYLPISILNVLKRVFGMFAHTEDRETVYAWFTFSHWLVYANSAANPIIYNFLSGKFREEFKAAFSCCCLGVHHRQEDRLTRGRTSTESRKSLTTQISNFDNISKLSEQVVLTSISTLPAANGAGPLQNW
The experiment is described as above. It is filed as cell-based. The settings on record: 10 μM test compound, CHO cells expressing human OX2 receptor, OX-A 0.3 nM; for inhibition at 10 µM: CHO, read-out: Human Orexin2 receptor inhibition (at 10 μM). In a few lines:
as §1

Each structure is given as a SMILES string.

`Cc1cc(N2C[C@H](C)N(C(=O)c3ccccc3-n3nccn3)[C@H](C)CO2)nc(C)n1` [Example 172, ((4S,6R)-2-(2,6-dimethylpyrimidin-4-yl)-4,6-dimethyl-1,2,5-oxadiazepan-5-yl)(2-(2H-1,2,3-triazol-2-yl)phenyl)methanone]: the inhibition at 10 µM was 103% on human OX1 receptor and 100% at human OX2 receptor.
Consider `Cc1nccc(N2C[C@H](C)N(C(=O)c3ccccc3-n3nccn3)[C@H](C)CO2)n1` [Example 173, ((4S,6R)-4,6-dimethyl-2-(2-methylpyrimidin-4-yl)-1,2,5-oxadiazepan-5-yl) (2-(2H-1,2,3-triazol-2-yl)phenyl)methanone], for which the inhibition at 10 µM at human OX1 receptor and at human OX2 receptor was 103% each time.
For the molecule `Cc1cc(N2C[C@H](C)N(C(=O)c3ccccc3-n3nccn3)[C@H](C)CO2)ncn1` [Example 174, ((4S,6R)-4,6-dimethyl-2-(6-methylpyrimidin-4-yl)-1,2,5-oxadiazepan-5-yl) (2-(2H-1,2,3-triazol-2-yl)phenyl)methanone], the inhibition at 10 µM on human OX1 receptor came to 95%; on human OX2 receptor it was 98%.
As to `C[C@@H]1CON(c2ccnc(C3CC3)n2)C[C@H](C)N1C(=O)c1ccccc1-n1nccn1` [Example 175, ((4S,6R)-2-(2-cyclopropylpyrimidin-4-yl)-4,6-dimethyl-1,2,5-oxadiazepan-5-yl) (2-(2H-1,2,3-triazol-2-yl)phenyl)methanone], the inhibition at 10 µM at human OX1 receptor is 99%; at human OX2 receptor, 98%.
For the molecule `Cc1ccc(-n2nccn2)c(C(=O)N2[C@H](C)CON(c3cc(C)nc(C)n3)C[C@@H]2C)c1` [Example 176, ((4S,6R)-2-(2,6-dimethylpyrimidin-4-yl)-4,6-dimethyl-1,2,5-oxadiazepan-5-yl)(5-methyl-2-(2H-1,2,3-triazol-2-yl)phenyl)methanone], the inhibition at 10 µM at human OX1 receptor came out at 103%; on human OX2 receptor, 101%.
In the case of `Cc1ccc(-n2nccn2)c(C(=O)N2[C@H](C)CON(c3cc(C)nc(C(F)(F)F)n3)C[C@@H]2C)c1` [Example 177, ((4S,6R)-4,6-dimethyl-2-(6-methyl-2-(trifluoromethyl)pyrimidin-4-yl)-1,2,5-oxadiazepan-5-yl) (5-methyl-2-(2H-1,2,3-triazol-2-yl)phenyl)methanone], the inhibition at 10 µM at human OX1 receptor was determined as 102%; on human OX2 receptor, 106%.
On to `Cc1ccc(-n2nccn2)c(C(=O)N2[C@H](C)CON(c3cc(C(F)(F)F)nc(C)n3)C[C@@H]2C)c1` [Example 178, ((4S,6R)-4,6-dimethyl-2-(2-methyl-6-(trifluoromethyl)pyrimidin-4-yl)-1,2,5-oxadiazepan-5-yl) (5-methyl-2-(2H-1,2,3-triazol-2-yl)phenyl)methanone], for which the inhibition at 10 µM at human OX1 receptor stood at 105%; on human OX2 receptor, 99%.
For `Cc1ccc(-n2nccn2)c(C(=O)N2[C@H](C)CON(c3cc(C(F)F)nc(C)n3)C[C@@H]2C)c1` [Example 179, ((4S,6R)-2-(6-(difluoromethyl)-2-methylpyrimidin-4-yl)-4,6-dimethyl-1,2,5-oxadiazepan-5-yl) (5-methyl-2-(2H-1,2,3-triazol-2-yl)phenyl)methanone], the inhibition at 10 µM at human OX1 receptor worked out at 102%; at human OX2 receptor, 98%.
For `Cc1nc(C(F)F)cc(N2C[C@H](C)N(C(=O)c3cc(F)ccc3-n3nccn3)[C@H](C)CO2)n1` [Example 180, ((4S,6R)-2-(6-(difluoromethyl)-2-methylpyrimidin-4-yl)-4,6-dimethyl-1,2,5-oxadiazepan-5-yl)(5-fluoro-2-(2H-1,2,3-triazol-2-yl)phenyl)methanone] the same measures were 90% and 101%.
The corresponding values for `Cc1nc(N2C[C@H](C)N(C(=O)c3cc(F)ccc3-n3nccn3)[C@H](C)CO2)cc(C(F)(F)F)n1` [Example 181, ((4S,6R)-4,6-dimethyl-2-(2-methyl-6-(trifluoromethyl)pyrimidin-4-yl)-1,2,5-oxadiazepan-5-yl)(5-fluoro-2-(2H-1,2,3-triazol-2-yl)phenyl)methanone] are 70% and 83%.
Consider `Cc1nc(C(F)F)cc(N2C[C@H](C)N(C(=O)c3cc(Cl)ccc3-n3nccn3)[C@H](C)CO2)n1` [Example 182, (5-chloro-2-(2H-1,2,3-triazol-2-yl)phenyl)((4S,6R)-2-(6-(difluoromethyl)-2-methylpyrimidin-4-yl)-4,6-dimethyl-1,2,5-oxadiazepan-5-yl)methanone], for which the values for the inhibition at 10 µM on human OX1 receptor and at human OX2 receptor were 100% and 98%, respectively.
The corresponding values for `Cc1nc(N2C[C@H](C)N(C(=O)c3cc(Cl)ccc3-n3nccn3)[C@H](C)CO2)cc(C(F)(F)F)n1` [Example 183, (5-chloro-2-(2H-1,2,3-triazol-2-yl)phenyl)((4S,6R)-4,6-dimethyl-2-(2-methyl-6-(trifluoromethyl)pyrimidin-4-yl)-1,2,5-oxadiazepan-5-yl)methanone] are 105% and 103%.
`Cc1nccc(N2C[C@H](C)N(C(=O)c3ccccc3-c3nccs3)[C@H](C)CO2)n1` [Example 184, ((4S,6R)-4,6-dimethyl-2-(2-methylpyrimidin-4-yl)-1,2,5-oxadiazepan-5-yl)(2-(1,3-thiazol-2-yl)phenyl)methanone]: the values for the inhibition at 10 µM at human OX1 receptor and at human OX2 receptor were 100% and 102%, respectively.
For `Cc1cc(N2C[C@@H](C)N(C(=O)c3ccccc3-n3nccn3)[C@@H](C)CO2)nc(C)n1` [Example 185, ((4R,6S)-2-(2,6-dimethylpyrimidin-4-yl)-4,6-dimethyl-1,2,5-oxadiazepan-5-yl)(2-(2H-1,2,3-triazol-2-yl)phenyl)methanone] the same measures were 22% and 31%.
As for `Cc1cc(N2C[C@@H](C)N(C(=O)c3ccccc3-c3nccs3)[C@@H](C)CO2)nc(C)n1` [Example 186, ((4R,6S)-2-(2,6-dimethylpyrimidin-4-yl)-4,6-dimethyl-1,2,5-oxadiazepan-5-yl)(2-(1,3-thiazol-2-yl)phenyl)methanone], the inhibition at 10 µM on human OX1 receptor turned out to be 23%; on human OX2 receptor it was 66%.
Regarding `Cc1cc(N2CC(C)N(C(=O)c3ccccc3-n3nccn3)CCO2)nc(C)n1` (stereo not drawn) [Example 187, (2-(2,6-dimethylpyrimidin-4-yl)-4-methyl-1,2,5-oxadiazepan-5-yl)(2-(2H-1,2,3-triazol-2-yl)phenyl)methanone], the inhibition at 10 µM on human OX1 receptor came out at 100%; on human OX2 receptor, 103%.
The corresponding values for `Cc1cc(N2OCCN(C(=O)c3ccccc3-n3nccn3)CC2C)nc(C)n1` (stereo not drawn) [Example 188, (2-(2,6-dimethylpyrimidin-4-yl)-3-methyl-1,2,5-oxadiazepan-5-yl)(2-(2H-1,2,3-triazol-2-yl)phenyl)methanone] are 13% and 29%.
As to `Cc1cc(N2CC(C)N(C(=O)c3ccccc3-n3nccn3)C[C@H](C)O2)nc(C)n1` (stereo partly drawn) [Example 189, ((7S)-2-(2,6-dimethylpyrimidin-4-yl)-4,7-dimethyl-1,2,5-oxadiazepan-5-yl)(2-(2H-1,2,3-triazol-2-yl)phenyl)methanone], the inhibition at 10 µM on human OX1 receptor was found to be 37%; at human OX2 receptor it was 57%.
For `Cc1cc(N2C[C@H](C)N(C(=O)c3ccccc3-n3nccn3)CC(C)O2)nc(C)n1` (stereo partly drawn) [Example 190, ((4S)-2-(2,6-dimethylpyrimidin-4-yl)-4,7-dimethyl-1,2,5-oxadiazepan-5-yl)(2-(2H-1,2,3-triazol-2-yl)phenyl)methanone] the same measures were 107% and 111%.
For the molecule `Cc1cc(N2C[C@H](C)N(C(=O)c3ccccc3-n3nccn3)CC(C)O2)nc(C)n1` (stereo partly drawn) [Example 191, ((4S)-2-(2,6-dimethylpyrimidin-4-yl)-4,7-dimethyl-1,2,5-oxadiazepan-5-yl)(2-(2H-1,2,3-triazol-2-yl)phenyl)methanone], the “Human Orexin1 receptor inhibition (at 10 μM)” value on human OX1 receptor amounted to 106%. The “Human Orexin2 receptor inhibition (at 10 μM)” value on human OX2 receptor came to 109%.
Take `Cc1cc(N2CCN(C(=O)c3ccccc3-n3nccn3)C(C)C(C)O2)nc(C)n1` (stereo not drawn) [Example 192, (2-(2,6-dimethylpyrimidin-4-yl)-6,7-dimethyl-1,2,5-oxadiazepan-5-yl)(2-(2H-1,2,3-triazol-2-yl)phenyl)methanone]: the “Human Orexin1 receptor inhibition (at 10 μM)” value at human OX1 receptor worked out at 64%. At human OX2 receptor, the inhibition at 10 µM was determined as 101%.

Broadly, the inhibition is the change of the read-out against control, counted positive when it falls.

Source of the values: patent publication US10131653B2, “Heterocyclic compound” (TAKEDA PHARMACEUTICAL COMPANY LIMITED, priority 2015, dated 2018).
